Assay results: patent publication US9890168B2, “2,4-disubstituted 7H-pyrrolo[2,3-d]pyrimidine derivative, preparation method and medicinal use thereof” (Shanghai Haiyan Pharmaceutical Technology Co., Ltd., priority 2014, dated 2018)
Counter-ions that a name gives are not always drawn.

Assays:
[1] = molecular target: wild-type EGFR kinase (Homo sapiens (Human), UniProt P00533); test: z'-lyte assay of inhibition activity on wild-type EGFR kinase; assay type: biochemical; conditions: 10 μM ATP, 0.8 ng/μL kinase, read-out: EGFR WT (IC50/μM)
Chain of wild-type EGFR kinase (P00533 25-1210): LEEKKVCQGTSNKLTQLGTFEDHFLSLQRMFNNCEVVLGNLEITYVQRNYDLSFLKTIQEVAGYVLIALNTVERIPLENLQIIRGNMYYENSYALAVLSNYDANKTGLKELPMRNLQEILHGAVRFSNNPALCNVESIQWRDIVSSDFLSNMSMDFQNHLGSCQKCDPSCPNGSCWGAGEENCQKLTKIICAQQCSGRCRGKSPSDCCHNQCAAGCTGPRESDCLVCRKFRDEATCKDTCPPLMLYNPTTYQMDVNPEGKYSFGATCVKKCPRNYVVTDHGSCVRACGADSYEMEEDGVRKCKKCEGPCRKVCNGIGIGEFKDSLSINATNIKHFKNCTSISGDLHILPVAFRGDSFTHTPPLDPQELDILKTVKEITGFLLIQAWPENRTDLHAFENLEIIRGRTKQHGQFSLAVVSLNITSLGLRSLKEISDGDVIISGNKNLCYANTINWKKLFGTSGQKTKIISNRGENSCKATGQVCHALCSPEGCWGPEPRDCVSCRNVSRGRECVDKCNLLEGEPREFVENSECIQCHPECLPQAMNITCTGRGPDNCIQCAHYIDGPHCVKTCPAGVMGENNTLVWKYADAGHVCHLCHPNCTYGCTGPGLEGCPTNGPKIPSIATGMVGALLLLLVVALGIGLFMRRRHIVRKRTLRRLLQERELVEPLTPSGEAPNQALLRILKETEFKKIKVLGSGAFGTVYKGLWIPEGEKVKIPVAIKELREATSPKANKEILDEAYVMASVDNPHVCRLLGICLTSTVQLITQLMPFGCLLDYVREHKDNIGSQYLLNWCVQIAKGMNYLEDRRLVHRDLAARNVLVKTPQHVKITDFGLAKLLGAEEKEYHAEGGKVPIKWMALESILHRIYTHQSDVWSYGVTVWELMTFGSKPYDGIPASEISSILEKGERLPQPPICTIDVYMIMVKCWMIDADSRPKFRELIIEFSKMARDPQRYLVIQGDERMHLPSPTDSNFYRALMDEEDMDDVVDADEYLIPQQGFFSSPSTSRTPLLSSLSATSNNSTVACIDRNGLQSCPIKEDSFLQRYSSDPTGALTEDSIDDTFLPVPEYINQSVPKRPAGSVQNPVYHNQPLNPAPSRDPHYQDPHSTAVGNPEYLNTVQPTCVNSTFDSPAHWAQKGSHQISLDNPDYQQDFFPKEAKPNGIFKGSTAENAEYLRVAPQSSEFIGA
Method: All reagents used in the following z′-lyte assay were purchased from Invitrogen.
The working concentrations of each component in 10 μL wild-type EGER kinase reaction system were: 10 μM ATP, 0.8 ng/μL wild-type EGFR kinase, 2 μM Tyr04 substrate (Invitrogen, PV3193). The concentration of DMSO after addition of the compound to be tested was 2 vol %.
10 mM drug stock solution was dissolved at room temperature and diluted to a final concentration of 4-0.002 μM with 8 vol % DMSO solution. […] Then 2.5 μl of ATP was added to initiate the reaction. Wherein, ATP was replaced by the reaction buffer in C1 well, no drug was added to C2 well, and the phosphorylated substrate was added to C3 well according to the instructions. The mixture was allowed to react at 25° C. in a shaker in dark for 60 min, 5 μL of Development Reagent B (invitrogen, diluted with TR-FRET dilution buffer) was added and allowed to react at room temperature in the shaker for 60 minutes.
The inhibition rate was calculated according to the following method (refer to the instructions of Invitronen, PV3193):
1. ER=Coumarin Emission (450 nm)/Fluorescein Emission (520 mn)
3. Inhibition ratio (IR)=(1−(phospholylation ratio of the test compound)/(phosphorylation ratio of C2))×100%
The half-inhibitory concentration IC50 was obtained through fitting calculation by using XLFIT 5.0 software (IDBS, UK).

[2] = molecular target: EGFR phosphorylation in H1975 (EGFR T790M mutant) cells (Homo sapiens (Human), UniProt P00533, L858R/T790M); test: Inhibition of EGFR phosphorylation in H1975 cells (ELISA); assay type: cell-based; conditions: for IC50: EGFR phosphorylation, ELISA, 1 h compound treatment, read-out: H1975 cell (IC50/μM); for Selective inhibitory activity against targets at the cell level [IC50 (A431 cell)/IC50 (H1975 cell)]: ratio of ELISA IC50 values
Chain of EGFR phosphorylation in H1975 (EGFR T790M mutant) cells (P00533 25-1210 T790M/L858R): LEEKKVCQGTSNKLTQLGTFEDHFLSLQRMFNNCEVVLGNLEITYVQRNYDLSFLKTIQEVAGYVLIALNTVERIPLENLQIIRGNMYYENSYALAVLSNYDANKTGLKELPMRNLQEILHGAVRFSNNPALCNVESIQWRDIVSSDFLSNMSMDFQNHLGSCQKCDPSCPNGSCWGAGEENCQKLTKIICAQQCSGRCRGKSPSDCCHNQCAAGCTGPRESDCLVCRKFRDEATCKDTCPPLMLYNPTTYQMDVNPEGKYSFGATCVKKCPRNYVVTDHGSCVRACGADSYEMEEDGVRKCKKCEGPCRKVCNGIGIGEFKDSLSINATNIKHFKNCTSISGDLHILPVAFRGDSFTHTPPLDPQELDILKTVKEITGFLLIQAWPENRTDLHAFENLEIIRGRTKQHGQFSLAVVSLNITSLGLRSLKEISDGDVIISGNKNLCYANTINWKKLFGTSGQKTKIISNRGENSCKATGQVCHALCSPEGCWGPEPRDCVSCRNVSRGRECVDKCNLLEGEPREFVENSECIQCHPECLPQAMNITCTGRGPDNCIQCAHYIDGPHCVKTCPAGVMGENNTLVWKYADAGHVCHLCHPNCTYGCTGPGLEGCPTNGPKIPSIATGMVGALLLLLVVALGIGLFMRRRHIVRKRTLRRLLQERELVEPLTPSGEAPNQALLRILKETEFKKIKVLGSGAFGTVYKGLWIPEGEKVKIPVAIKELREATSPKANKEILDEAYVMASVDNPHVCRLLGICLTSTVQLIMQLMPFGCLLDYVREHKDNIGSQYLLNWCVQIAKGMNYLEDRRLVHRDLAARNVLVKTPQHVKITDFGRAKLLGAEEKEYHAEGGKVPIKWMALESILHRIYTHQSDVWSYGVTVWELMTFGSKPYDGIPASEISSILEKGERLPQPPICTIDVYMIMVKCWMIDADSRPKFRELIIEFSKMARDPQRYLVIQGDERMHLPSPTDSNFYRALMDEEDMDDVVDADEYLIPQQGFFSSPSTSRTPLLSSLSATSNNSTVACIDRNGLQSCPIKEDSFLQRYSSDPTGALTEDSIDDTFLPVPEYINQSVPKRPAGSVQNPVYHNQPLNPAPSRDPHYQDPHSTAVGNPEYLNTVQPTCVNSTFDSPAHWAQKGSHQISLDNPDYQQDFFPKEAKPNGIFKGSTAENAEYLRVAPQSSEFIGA
Method: (§1) The reagents used in the following methods, the preparation methods of solutions, the cell treatment and the preparation steps of lysate were carried out according to the instructions of R&D DYC3570, R&D DYC1095E and R&D DYC1095BE.
(2) The compounds to be tested were diluted in accordance with the drug dilution method in the MTT assay. 10 μL of the diluted compound solution or diluted DMSO was added to the corresponding wells of the cell culture plate, and the final concentration of DMSO was 0.5% (V/V). The plate was cultured at 37° C. in 5% (v/v) CO2 for 1 h. The cell culture system treated with DMSO alone was used as cell control.
(3) The medium was removed and then 100 μL of cell lysis solution was added. The plate was sealed and placed in a refrigerator at −80° C. overnight. The cell lysis buffer was used as blank control.
The assay was conducted according to the instructions given in R&D DYC1095E or R&D DYC1095BE.
(5) 40 μL of cell lysis buffer and 60 μL of cell lysis solution were added and the plate was incubated at 25° C. with shaking for 2 hours.
(§2) (7) The detection antibody was diluted with the detection antibody diluent in the proportion specified in the instructions of the kit. 100 μL of the diluent antibody was added to each well and the plate was incubated at 25° C. with shaking in dark for 1 h.
(9) A reagent and B reagent in the TMB substrate (R&D DY999) were mixed in 1:1. 100 μL of the mixture was added to each well and incubated in dark at 25° C. with shaking for 20 min.
(11) The plate was read with a microplate reader (Thermo Multiskan K3). OD 450 values and OD570 values of the cell control, blank control, and drug treatment wells were measured. ODcell, ODblank and ODdrug treatment were obtained by subtracting the corresponding OD570 value from the OD 450 value of the same well.
2.3 Data Analysis Inhibition rate (%)=100%×(ODcell−ODdrug treatment)/(ODcell−ODblank)

[3] = molecular target: EGFR phosphorylation in A431 (EGFR wild-type) cells (Homo sapiens (Human), UniProt P00533); test: Inhibition of EGFR phosphorylation in A431 cells (ELISA); assay type: cell-based; conditions: 1 h compound treatment, EGF stimulation, read-out: A431 cell (IC50/μM)
Chain of EGFR phosphorylation in A431 (EGFR wild-type) cells (P00533 25-1210): as the sequence (P00533 25-1210) above
Method: as §1
(2) The A431 cell culture medium was replaced with 90 μl of serum-free DMEM medium and the plate was cultured overnight.
(3) The compound to be tested was diluted according to the drug dilution method in MTT assay. 10 μL of the dilated compound solution or diluted DMSO was added to the corresponding wells of the cell culture plate, and the final concentration of DMSO was 0.5%. The plate was cultured at 37° C. in 5% CO2 for 1 hour. […] The cells without EGF and drugs were used as cell control, and the cells treated with EGF without drugs were used as EGF control.
(4) The medium was removed and then 100 μL, of the cell lysis solution was added. The plate was sealed and placed in a refrigerator at −80° C. overnight.
The assay was conducted according to the instructions given in R&D DYC3570E.
(5) 40 μL of cell lysis butler and 60 μL of cell lysis solution were added and the plate was incubated at 25° C. with shaking for 2 hours.
as §2
(9) A reagent and B reagent in TMB substrate (R&D DY999) were mixed in 1:1. 100 μL mixture was added to each well and incubated in dark at 25° C. with shaking tor 20 min.
(11) The plate was read with a microplate reader (Thermo Multiskan K3). OD 450 values and OD570 values of the cell control, blank control, and drug treatment wells were measured. ODEGF, ODdrug and ODcell were obtained by subtracting the corresponding OD570 value from the OD 450 value of the same well.
3.3 Data Analysis Inhibition rate (%)=100%×(ODEGF−ODdrug)/(ODEGF−ODcell)

[4] = test system: H1975 cells; test: Cell inhibitory activity by MTT assay, H1975 cells; assay type: cell-based; conditions: for IC50: cell growth, MTT assay, 72 hours; for Selective inhibitory activity against cell growth [IC50 (A431 cell)/IC50 (H1975 cell)]: ratio of MTT IC50 values
Method: (§3) After the first wash, 1.5 mL of trypsin/EDTA was added to digest the adherent cells until the cells detached. Then 3.5 mL of the culture medium was added to terminate the digestion. The digested cell suspension was transferred to a 15 mL centrifuge tube and centrifuged at 1300 rpm for 3 minutes. The supernatant was discarded and the cells were resuspended in fresh medium. The cells were then counted and diluted to the following concentrations: 27,800 cells per milliliter of H1975 cells, 33,300 cells per milliliter of A431 cells and NIH3T3 cells.
(§4) After the drug was added, the cells were incubated in an incubator for 72 hours. 10 μL of 5 mg/ml MTT (Sigma, M5655) solution was added to each well. The 96-well plate was then incubated in a 37° C. and 5% CO2 incubator for 4 h.
(§5) The plate was then centrifuged at 2000 rpm for 5 min. After the supernatant was removed, 150 μl of DMSO was added to each well and the plate was shaken in a shaker until all crystal violet was dissolved.

[5] = test system: A431 cells; test: Cell inhibitory activity by MTT assay, A431 cells; assay type: cell-based; conditions: 72 hours
Method: as §3, §4, §5

[6] = test system: NIH3T3 cells; test: Toxicity test on NIH3T3 cells by MTT assay; assay type: cell-based
Method: as §3, §4, §5

[7] = test system: T790M mutant cell line H1975; conditions: background statement; cited from earlier work
[8] = Homo sapiens, A-431, cell growth

Compound | IC50 [1] | IC50 [2] | Selective inhibitory activity against targets at the cell level [IC50 (A431 cell)/IC50 (H1975 cell)] [2] | IC50 [3] | IC50 ([4]; Homo sapiens, NCI-H1975) | Selective inhibitory activity against cell growth [IC50 (A431 cell)/IC50 (H1975 cell)] [4] | IC50 [5, 8] | IC50 ([6]; Mus musculus, NIH3T3, 72 hours) | activity in the T790M mutant cell line H1975 [7] | IC50 [4] | IC50 ([5]; cell growth) | IC50 ([6]; 72 hours)
C=CC(=O)Nc1cc(Nc2nc(-c3cn(C)c4ccccc34)c3cc[nH]c3n2)c(OC)cc1N(C)CCN(C)C [Compound 5, N-(2-((2-(dimethylamino)ethyl)(methyl)amino)-4-methoxy-5-(4-(1-methyl-1H-indol-3-yl)-7H-pyrrolo[2,3-d]pyrimidin-2-ylamino)phenyl)acrylamide] | 0.015 µM | 0.016 µM | 7.4 | 0.119 µM | 0.009 µM | 34.2 | 0.308 µM | 2.63 µM | – | – | – | –
C=CC(=O)Nc1cc(Nc2nc(-c3ccccc3)c3cc[nH]c3n2)c(OC)cc1N(C)CCN(C)C [Compound 7, N-(2-((2-(dimethylamino)ethyl)(methyl)amino)-4-methoxy-5-(4-phenyl-7H-pyrrolo[2,3-d]pyrimidin-2-ylamino)phenyl)acrylamide] | 0.315 µM | 0.204 µM | 9.2 | 1.87 µM | 0.225 µM | 7.5 | 1.69 µM | 2.42 µM | – | – | – | –
C=CC(=O)Nc1cc(Nc2nc(N3CCOCC3)c3cc[nH]c3n2)c(OC)cc1N(C)CCN(C)C [Compound 2, N-(2-((2-(dimethylamino)ethyl)(methyl)amino)-4-methoxy-5-(4-morpholino-7H-pyrrolo[2,3-d]pyrimidin-2-ylamino)phenyl)acrylamide] | > 1 µM | 0.322 µM | 31 | > 10 µM | 0.143 µM | 28 | 4.01 µM | > 10 µM | – | – | – | –
C=CC(=O)Nc1cc(Nc2nc(-c3cnc4c(ccn4C)c3)c3cc[nH]c3n2)c(OC)cc1N(C)CCN(C)C [Compound 4, N-(2-((2-(dimethylamino)ethyl)(methyl)amino)-4-methoxy-5-(4-(1-methyl-1H-pyrrolo[2,3-b]pyridin-5-yl)-7H-pyrrolo[2,3-d]pyrimidin-2-ylamino)phenyl)acrylamide] | 0.039 µM | 0.015 µM | 17 | 0.254 µM | 0.029 µM | 38.7 | 1.12 µM | 2.09 µM | – | – | – | –
C=CC(=O)Nc1cc(Nc2nc(-c3cccnc3)c3cc[nH]c3n2)c(OC)cc1N(C)CCN(C)C [Compound 6, N-(2-((2-(dimethylamino)ethyl)(methyl)amino)-4-methoxy-5-(4-(pyridin-3-yl)-7H-pyrrolo[2,3-d]pyrimidin-2ylamino)phenyl)acrylamide] | 0.347 µM | 0.096 µM | 17.4 | 1.67 µM | 0.079 µM | 22.8 | 1.8 µM | 5.1 µM | – | – | – | –
C=CC(=O)Nc1cc(Nc2nc(-c3cnn(C)c3)c3c(Cl)c[nH]c3n2)c(OC)cc1N1CCC(N(C)C)CC1 [Compound 13, N-(5-(5-chloro-4-(1-methyl-1H-pyrazol-4-yl)-7H-pyrrolo[2,3-d]pyrimidin-2-ylamino)-2-(4(dimethylamino)piperidin-1-yl)-4-methoxyphenyl)acrylamide] | – | – | – | – | 0.531 µM | – | 3.04 µM | > 10 µM | – | – | – | –
COc1cc2ncnc(Nc3ccc(F)c(Cl)c3)c2cc1OCCCN1CCOCC1 [gefitinib] | – | – | – | – | – | – | – | – | greater than 3 uM | – | – | –
C=CC(=O)Nc1cc(Nc2nc(-c3cnn(C)c3)c3cc[nH]c3n2)c(OC)cc1N(C)CCN(C)C [Compound 1, N-(2-((2-(dimethylamino)ethyl)(methyl)amino)-4-methoxy-5-(4(1-methyl-1H-pyrazol-4-yl)-7H-pyrrolo[2,3-d]pyrimidn-2-ylamino)phenyl)acrylamide] | 0.393 µM | 0.112 µM | 32.7 | 3.67 µM | 0.043 µM | 36.3 | 1.56 µM | > 10 µM | – | – | – | –
C=CC(=O)Nc1cc(Nc2nc(-c3cnn(C)c3)c3cc[nH]c3n2)c(OC)cc1N1CCC(N(C)C)CC1 [Compound 9, N-(2-(4-(dimethylamino)piperidin-1-yl)-4-methoxy-5-(4-(1-methyl-1H-pyrazol-4-yl)-7H-pyrrolo[2,3-D]pyrimidin-2-ylamino)phenyl)acrylamide] | > 1 µM | 0.384 µM | >26 | > 10 µM | 0.3 µM | 14.5 | 4.34 µM | > 10 µM | – | – | – | –
C#Cc1cccc(Nc2ncnc3cc(OCCOC)c(OCCOC)cc23)c1 [erlotinib] | – | – | – | – | – | – | – | – | greater than 3 uM | – | – | –
C=CC(=O)Nc1cc(Nc2nc(-c3cnn(C)c3)c3cc[nH]c3n2)c(OC)cc1OCCN(C)C [Compound 10, N-(2-(2-(dimethylamino)etboxy)-4-methoxy-5-(4-(1-methyl-1H-pyrazol-4-yl)-7H-pyrrolo[2,3-d]pyrimidin-2-ylamino)phenyl)acrylamide] | – | 0.166 µM | 54.1 | 8.98 µM | 0.112 µM | 34 | 3.8 µM | > 10 µM | – | – | – | –
C=CC(=O)Nc1cc(Nc2nc(OC3CN(S(C)(=O)=O)C3)c3cc[nH]c3n2)c(OC)cc1N(C)CCN(C)C [Compound 3, N-(2-((2-(dimethylamino)ethyl)(methyl)amino)-4-methoxy-5-(4-(1-(methylsulfonyl)azetidin-3-yloxy)-7H-pyrrolo[2,3-d]pyrimidin-2-ylamino)phenyl)acryl amide] | 0.088 µM | 0.032 µM | 26.9 | 0.86 µM | – | 101 | – | – | – | 0.029 µM | 2.93 µM | > 10 µM
C=CC(=O)Nc1cc(Nc2nc(-c3cnn(C)c3)c3cc[nH]c3n2)c(OC)cc1N1CC(N(C)C)C1 [Compound 11, N-(2-(3-(dimethylamino)azetidin-1-yl)-4-methoxy-5-(4-(1-methyl-1H-pyrazol-4-yl)-7H-pyrrolo[2,3-d]pyrimidin-2-ylamino)phenyl)acrylamide Formate] | > 1 µM | – | – | – | – | – | – | – | – | – | – | –
CN(C)C/C=C/C(=O)Nc1cc2c(Nc3ccc(F)c(Cl)c3)ncnc2cc1O[C@H]1CCOC1 [BIBW2992, reference compound] | – | – | – | – | 0.088 µM | – | – | 2.75 µM | – | – | – | –
C=CC(=O)Nc1cc(Nc2nc(-c3cnn(C)c3)c3cc[nH]c3n2)c(OC)cc1N1CCN(C)CC1 [Compound 12, N-(4-methoxy-5-(4-(1-methyl-1H-pyrazol-4-yl)-7H-pyrrolo[2,3-d]pyrimidin-2-ylamino)-2-(4-methylpiperazin-1-yl)phenyl)acrylamide] | > 1 µM | – | – | – | – | – | – | – | – | – | – | –
